In experiment [1] the target is T1, AR (AR-full length) in LNCaP cells (Homo sapiens, UniProt P10275, T878A).
T1 construct: the prostate cancer cell line LNCaP (expressing AR-full length); endogenous in cells; host or cells: LNCaP
Put plainly: LNCaP Androgen Receptor Imaging Assay (immunofluorescence of endogenous nuclear AR). The settings on record: 24 h incubation; for DC50: concentration giving 50% of maximum degradation of AR per curve fit, single experiment or average of two or more; for Dmax: LNCaP, maximum degradation observed, normalized as % of positive control (prior art AR PROTAC at 3 μM). It is filed as cell-based. The procedure, abridged: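 LNCaP cells (12,000/well) received a 12-point compound dose series (0.3% DMSO) for 24 h at 37° C., then were PFA-fixed and stained for AR (AR441) and nuclei (DRAQ5). Nuclear AR was quantified by imaging, normalized to a 3 μM AR PROTAC control; DC50 and Dmax came from Hill/bell curve fits.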

Experiment [2] addresses T2, AR (L702H) in LNCaP cells (Homo sapiens, UniProt P10275, L702H/T878A).
T2 construct: engineered to introduce the mutation L702H into the AR gene using CRISPR/Cas9; endogenous in cells; host or cells: LNCaP cells edited by CRISPR/Cas9 at the AR gene
In words: LNCaP Androgen Receptor L702H Imaging Assay (LNCaP cells engineered by CRISPR/Cas9). Format: cell-based. The settings on record: LNCaP cells with AR L702H mutation, 24 h incubation; for DC50: concentration giving 50% of maximum degradation of AR (L702H) per curve fit; for Dmax: LNCaP, maximum degradation observed, normalized as % of positive control. The procedure, abridged:
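CRISPR-engineered LNCaP cells carrying AR L702H were treated 24 h at 37 °C with a 12-point compound dose response (0.3% DMSO), then fixed and immunostained for AR with DRAQ5 nuclear counterstain. Nuclear AR was quantified by imaging, normalized to positive control; DC50 and Dmax came from Hill or bell-shaped fits.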

DC50 and Dmax data for four molecules are collected here from patent US20260274832A1, “COMPOUNDS AND THEIR USE IN TREATING CANCER” (ASTRAZENECA AB, priority 2023, published 2026).

One may read the DC50 as the concentration at which degradation of the target reaches its halfway point. Read a low DC50 as a more potent degrader. Broadly, the Dmax is the greatest extent of degradation seen.

T1 sequence (P10275 whole entry T878A): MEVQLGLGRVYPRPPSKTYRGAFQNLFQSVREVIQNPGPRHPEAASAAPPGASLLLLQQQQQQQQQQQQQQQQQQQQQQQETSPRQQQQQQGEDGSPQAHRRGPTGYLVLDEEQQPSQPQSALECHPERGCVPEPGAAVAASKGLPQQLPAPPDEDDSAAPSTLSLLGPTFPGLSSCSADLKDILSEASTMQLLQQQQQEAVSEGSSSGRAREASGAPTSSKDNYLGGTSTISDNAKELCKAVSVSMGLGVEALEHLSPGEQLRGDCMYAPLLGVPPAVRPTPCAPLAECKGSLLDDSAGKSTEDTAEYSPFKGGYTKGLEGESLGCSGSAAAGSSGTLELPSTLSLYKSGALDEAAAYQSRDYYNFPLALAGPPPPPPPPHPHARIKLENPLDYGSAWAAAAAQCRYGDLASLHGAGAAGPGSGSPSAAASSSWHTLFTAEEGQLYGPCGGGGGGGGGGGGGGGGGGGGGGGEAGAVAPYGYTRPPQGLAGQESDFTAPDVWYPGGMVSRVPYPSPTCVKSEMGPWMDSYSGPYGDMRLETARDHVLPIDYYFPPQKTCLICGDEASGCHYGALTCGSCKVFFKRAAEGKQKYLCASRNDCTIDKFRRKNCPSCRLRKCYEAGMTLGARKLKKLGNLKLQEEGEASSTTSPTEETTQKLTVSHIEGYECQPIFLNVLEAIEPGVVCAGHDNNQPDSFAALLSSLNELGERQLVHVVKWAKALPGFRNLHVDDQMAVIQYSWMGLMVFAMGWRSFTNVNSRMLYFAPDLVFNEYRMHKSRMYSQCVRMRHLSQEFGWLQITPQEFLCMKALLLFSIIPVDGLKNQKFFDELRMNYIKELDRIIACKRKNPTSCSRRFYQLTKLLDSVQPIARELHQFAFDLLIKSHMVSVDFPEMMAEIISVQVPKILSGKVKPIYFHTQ
T1 sequence (Q96SW2 whole entry partner): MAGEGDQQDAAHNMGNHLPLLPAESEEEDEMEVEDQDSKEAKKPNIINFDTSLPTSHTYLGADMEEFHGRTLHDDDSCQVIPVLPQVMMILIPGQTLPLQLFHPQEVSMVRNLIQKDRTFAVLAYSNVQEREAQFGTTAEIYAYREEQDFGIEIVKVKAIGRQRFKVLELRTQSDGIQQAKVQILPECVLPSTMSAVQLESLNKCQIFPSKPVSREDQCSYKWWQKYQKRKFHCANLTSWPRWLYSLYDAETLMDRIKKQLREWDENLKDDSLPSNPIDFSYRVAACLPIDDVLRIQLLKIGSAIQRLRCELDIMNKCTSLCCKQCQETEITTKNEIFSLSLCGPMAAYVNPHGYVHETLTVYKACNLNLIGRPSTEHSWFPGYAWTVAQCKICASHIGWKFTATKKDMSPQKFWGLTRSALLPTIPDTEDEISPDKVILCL
T2 sequence (P10275 whole entry L702H/T878A): as the sequence (P10275 whole entry T878A) above, with L702H counted along it
T2 sequence (Q96SW2 whole entry partner): as the sequence (Q96SW2 whole entry partner) above

With `N#Cc1c[nH]c2c(N3CCC(c4ccc(N5CCC(CN6Cc7cc8c(cc7C6)C(=O)N(C6CCC(=O)NC6=O)C8=O)CC5)cc4)CC3)ccc(Cl)c12` (stereo not shown) [Example 75, 4-Chloro-7-{4-[4-(4-{[6-(2,6-dioxopiperidin-3-yl)-5,7-dioxo-3,5,6,7-tetrahydropyrrolo[3,4-f]isoindol-2(1H)-yl]methyl}piperidin-1-yl)phenyl]piperidin-1-yl}-1H-indole-3-carbonitrile], the figures for the DC50 in experiment [1] and in experiment [2] were 62 nM and 68 nM, respectively. Besides, the Dmax in experiment [1] is 68%; in experiment [2], 83%.

Turning to `N#Cc1c[nH]c2c(N3CCC(NC(=O)c4ccc(N5CCC(CN6CCC(n7ccc8c(N9CCC(=O)NC9=O)cccc87)CC6)CC5)nn4)CC3)ccc(Cl)c12` [Example 179, N-[1-(4-Chloro-3-cyano-1H-indol-7-yl)piperidin-4-yl]-6-[4-({4-[4-(2,4-dioxo-1,3-diazinan-1-yl)-1H-indol-1-yl]piperidin-1-yl}methyl)piperidin-1-yl]pyridazine-3-carboxamide], in experiment [1], it took 1 nM to reach half-maximal degradation (DC50) and the Dmax stood at 103%. For the same molecule, in experiment [2], the DC50 turned out to be 1 nM and the Dmax worked out at 108%.

With `Cn1c(C2CCN(CC3CCN(c4ccc([C@@H]5CCCN(c6ccc(Cl)c7c(C#N)c[nH]c67)C5)cc4)CC3)CC2)cc2cc(F)c(N3CCC(=O)NC3=O)cc21` [Example 137, 4-Chloro-7-[(3S)-3-{4-[4-({4-[6-(2,4-dioxo-1,3-diazinan-1-yl)-5-fluoro-1-methyl-1H-indol-2-yl]piperidin-1-yl}methyl)piperidin-1-yl]phenyl}piperidin-1-yl]-1H-indole-3-carbonitrile], the values for the DC50 in experiment [1] and in experiment [2] were 10 nM and 20 nM, respectively. Further, the Dmax in experiment [1] is 105%; in experiment [2] it was 109%.

Consider `COc1cc(N2CCN(CCCCOc3ccc(C4CCN(c5ccc(C)c6c(C#N)n[nH]c56)CC4)cc3)CC2)cc2c1C(=O)N(C1CCC(=O)NC1=O)C2` (stereo not shown) [Example 148, 7-{4-[4-(4-{4-[2-(2,6-Dioxopiperidin-3-yl)-7-methoxy-1-oxo-2,3-dihydro-1H-isoindol-5-yl]piperazin-1-yl}butoxy)phenyl]piperidin-1-yl}-4-methyl-1H-indazole-3-carbonitrile], for which the half-maximal degradation concentration (DC50) came out at 20 nM in experiment [1] and 52 nM in experiment [2]. In addition, the Dmax was determined as 99% in experiment [1] and 89% in experiment [2].
